Assay results: PMC5126668 (PeerJ, 2016)
Where “and” joins values, the source holds several entries; their conditions need not be identical. Identical values can stand only once.

How the values were obtained:
HK-2 cells = assay: HK-2 cell viability, MTT assay, with or without co-cultured HLMs; assay type: cell-based, human; conditions: GA 100 µM alone
Protocol: HK-2 cells obtained from Peking Union Medical College were maintained in D/F12 medium containing 10% fetal bovine serum, 2 mM glutamine and 1 × 10^5 U/L penicillin and streptomycin at 37 °C in a 5% CO2 atmosphere. […] The samples containing HLMs were prepared in an ice bath, and three replicates were tested for each dose. In brief, HK-2 cells (100 µL) were seeded at 3 × 10^5cells/mL in 96-well plates. After 12 h, 200 µL of the test compound was added. For the BAK and GA with HLMs group, GA was pre-incubated with NADPH in HLMs for 30 min at 37 °C and then mixed with BAK; for the other groups, all tested compounds except NADPH were mixed, and NADPH was then added to start the metabolic reaction. After 4 h of culture, 100 µL of 0.5 g/L MTT was added, and the cells were cultured for 4 h. Subsequently, 150 µL of 4% isopropanol was added to cells for 15 min at 37 °C, and the absorbance at 570 nm was then read by a microplate reader (Multiskan MK3, Thermo, USA). The relative cell viability (%) was calculated as follows: Mean Absorbance of Sample/Mean Absorbance of Vehicle Control × 100%.

BAK metabolism in HLMs = assay: Metabolic elimination of BAK in HLMs and its inhibition by GA (HPLC); assay type: in vitro ADME, human; conditions: for Remaining percentage of GA (%) / Inhibition of BAK by GA (%): 30 min, mean; for Inhibition of BAK by GA, single samples / remaining of GA (%), single samples: t=30 min
Protocol: The HLM mixtures were prepared on ice. […] At the end of the incubation (0 or 30 min), 200 µL of methanol-acetonitrile (1:1, V:V) solution containing tanshinone II A (internal standard) was added to terminate the reaction. The mixtures were then vortexed for 2 min followed by centrifugation at 14,500 rpm for 10 min. A 10 µL aliquot of the supernatant was then injected for HPLC analysis. […] RContr is the percentage of BAK remaining in the BAK group.

CYP2D6 = target: T1, CYP2D6 (Homo sapiens, UniProt P10635); assay: Inhibition of CYP activities by GA in HLMs (dextromethorphan); assay type: biochemical
T1 construct: was investigated in HLMs; tissue iPhase Pharmaceutical Services (Beijing, China) Lot # 7MMC011; host or cells: pooled human liver microsomes
T1 sequence (P10635 whole entry): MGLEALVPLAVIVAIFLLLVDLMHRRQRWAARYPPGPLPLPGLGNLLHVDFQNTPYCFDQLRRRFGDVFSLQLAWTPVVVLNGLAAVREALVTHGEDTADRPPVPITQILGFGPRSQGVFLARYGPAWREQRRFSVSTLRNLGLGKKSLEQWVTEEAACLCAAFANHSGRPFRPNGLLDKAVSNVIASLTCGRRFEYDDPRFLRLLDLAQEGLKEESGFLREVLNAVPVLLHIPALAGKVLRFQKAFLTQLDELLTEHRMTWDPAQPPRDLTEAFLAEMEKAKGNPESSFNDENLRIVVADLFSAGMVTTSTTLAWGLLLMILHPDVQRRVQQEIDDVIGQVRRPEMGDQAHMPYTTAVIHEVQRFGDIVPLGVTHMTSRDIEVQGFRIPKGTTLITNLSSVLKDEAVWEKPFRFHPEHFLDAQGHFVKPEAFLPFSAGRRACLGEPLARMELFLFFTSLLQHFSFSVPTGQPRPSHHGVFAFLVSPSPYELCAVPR
Protocol: (§1) The samples containing HLMs were prepared in an ice bath, and three replicates of each dose were tested.
(§2) The reaction system consisted of 0.5 g/L HLMs, 1 mM NADPH, 25 µM phenacetin (CYP1A2 substrate), 25 µM tolbutamide (CYP2C9 substrate), 25 µM mephenytoin (CYP2C19 substrate), 10 µM dextromethorphan (CYP2D6 substrate) and 10 µM midazolam (CYP3A4 substrate). After incubation at 37 °C for 30 min, 200 µL of methanol containing 100 µg/L propranolol hydrochloride was added to terminate the reaction. The samples were then treated, and the corresponding substrate metabolites of CYP isoforms were detected according to a previously described method ([Shen et al., 2013]).

CYP3A4 = target: T2, CYP3A4 (Homo sapiens, UniProt P08684); assay: Inhibition of CYP activities by GA in HLMs (midazolam); assay type: biochemical
T2 construct: was investigated in HLMs; tissue iPhase Pharmaceutical Services (Beijing, China) Lot # 7MMC011; host or cells: pooled human liver microsomes
T2 sequence (P08684 whole entry): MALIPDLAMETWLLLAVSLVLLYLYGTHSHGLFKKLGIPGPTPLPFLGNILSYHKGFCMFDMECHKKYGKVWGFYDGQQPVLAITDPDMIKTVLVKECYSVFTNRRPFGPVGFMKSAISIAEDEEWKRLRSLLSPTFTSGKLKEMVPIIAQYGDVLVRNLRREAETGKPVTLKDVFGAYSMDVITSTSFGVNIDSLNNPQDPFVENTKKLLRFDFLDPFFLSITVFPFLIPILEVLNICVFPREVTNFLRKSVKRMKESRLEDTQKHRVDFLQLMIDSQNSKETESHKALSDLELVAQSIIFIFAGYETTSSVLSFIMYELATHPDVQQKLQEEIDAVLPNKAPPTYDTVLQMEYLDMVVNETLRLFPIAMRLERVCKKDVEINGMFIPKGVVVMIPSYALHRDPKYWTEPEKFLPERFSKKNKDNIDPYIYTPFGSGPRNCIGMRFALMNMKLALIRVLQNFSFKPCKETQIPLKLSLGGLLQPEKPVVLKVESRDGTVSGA
Protocol: as §1, §2

Remaining percentage of GA (%) (BAK metabolism in HLMs; GA 12.5 µM with BAK 10 µM, HLMs): 99.37 ± 9.39% and 99.37% | remaining of GA (%), single samples (BAK metabolism in HLMs; GA 12.5 µM, BAK 10 µM): 94.84% and 93.11% and 110.17% | Remaining percentage of GA (%) (BAK metabolism in HLMs; GA 62.5 µM with BAK 10 µM, HLMs): 100.7 ± 12.33% and 100.77% | remaining of GA (%), single samples (BAK metabolism in HLMs; GA 62.5 µM, BAK 10 µM): 112.61% and 101.67% and 88.01% | remaining of GA (%), single samples (BAK metabolism in HLMs; GA 93.75 µM, BAK 10 µM): 94.57% and 101.22% | Remaining percentage of GA (%) (BAK metabolism in HLMs; GA 125.0 µM with BAK 10 µM, HLMs): 107.8 ± 7.54% and 107.76% | remaining of GA (%), single samples (BAK metabolism in HLMs; GA 125 µM, BAK 10 µM): 101.56% and 105.56% and 116.14% | GA concentrations at which significant inhibition of BAK metabolic clearance was observed (BAK metabolism in HLMs; HLMs, BAK 10 µM): above 12.5 µM | IC50 (CYP2D6; HLMs, 30 min pre-incubation with NADPH, dextromethorphan 10 µM): 263 ± 1.05 µM | activity at 30 min, 0.1 µM (CYP2D6; human, human liver microsomes, probe dextromethorphan (10 µM), CYP2D6-30min, GA 0.10, vs control, read-out: Relative activity (%)): 96.4% | activity at 30 min, 1 µM (CYP2D6; human, human liver microsomes, probe dextromethorphan (10 µM), CYP2D6-30min, GA 1.00, vs control, read-out: Relative activity (%)): 92.4% | activity at 30 min, 6.25 µM (CYP2D6; human, human liver microsomes, probe dextromethorphan (10 µM), CYP2D6-30min, GA 6.25, vs control, read-out: Relative activity (%)): 96% | activity at 30 min, 31.25 µM (CYP2D6; human, human liver microsomes, probe dextromethorphan (10 µM), CYP2D6-30min, GA 31.25, vs control, read-out: Relative activity (%)): 91.1% | activity at 30 min, 100 µM (CYP2D6; human, human liver microsomes, probe dextromethorphan (10 µM), CYP2D6-30min, GA 100.00, vs control, read-out: Relative activity (%)): 85.1% | activity at 30 min, 156.25 µM (CYP2D6; human, human liver microsomes, probe dextromethorphan (10 µM), CYP2D6-30min, GA 156.25, vs control, read-out: Relative activity (%)): 81.7% | activity at 30 min, 312.5 µM (CYP2D6; human, human liver microsomes, probe dextromethorphan (10 µM), CYP2D6-30min, GA 312.50, vs control, read-out: Relative activity (%)): 42% | activity at 30 min, 1000 µM (CYP2D6; human, human liver microsomes, probe dextromethorphan (10 µM), CYP2D6-30min, GA 1000.00, vs control, read-out: Relative activity (%)): 29.3% | activity at 30 min, […] (CYP2D6; human, human liver microsomes, probe dextromethorphan (10 µM), read-out: Relative activity (%)): 69.7% | IC50 (CYP3A4; HLMs, 30 min pre-incubation with NADPH, midazolam 10 µM, µM): 1.53 ± 2.25 µM | activity at 30 min, 0.1 µM (CYP3A4; human, human liver microsomes, probe midazolam (10 µM), CYP3A4-30min, GA 0.10, vs control, read-out: Relative activity (%)): 95.9% | activity at 30 min, 1 µM (CYP3A4; human, human liver microsomes, probe midazolam (10 µM), CYP3A4-30min, GA 1.00, vs control, read-out: Relative activity (%)): 64.6% | activity at 30 min, 6.25 µM (CYP3A4; human, human liver microsomes, probe midazolam (10 µM), CYP3A4-30min, GA 6.25, vs control, read-out: Relative activity (%)): 39.1% | activity at 30 min, 31.25 µM (CYP3A4; human, human liver microsomes, probe midazolam (10 µM), CYP3A4-30min, GA 31.25, vs control, read-out: Relative activity (%)): 13.5% | activity at 30 min, 100 µM (CYP3A4; human, human liver microsomes, probe midazolam (10 µM), CYP3A4-30min, GA 100.00, vs control, read-out: Relative activity (%)): 15.2% | activity at 30 min, 156.25 µM (CYP3A4; human, human liver microsomes, probe midazolam (10 µM), CYP3A4-30min, GA 156.25, vs control, read-out: Relative activity (%)): 13.1% | activity at 30 min, 312.5 µM (CYP3A4; human, human liver microsomes, probe midazolam (10 µM), CYP3A4-30min, GA 312.50, vs control, read-out: Relative activity (%)): 0.261% | activity at 30 min, 1000 µM (CYP3A4; human, human liver microsomes, probe midazolam (10 µM), CYP3A4-30min, GA 1000.00, vs control, read-out: Relative activity (%)): 0.298% | activity at 30 min, […] (CYP3A4; human, human liver microsomes, probe midazolam (10 µM), read-out: Relative activity (%)): 3.63%
SMILES: CC1(C)[C@@H](O)CC[C@]2(C)[C@H]3C(=O)C=C4[C@@H]5C[C@@](C)(C(=O)O)CC[C@]5(C)CC[C@@]4(C)[C@]3(C)CC[C@@H]12 [GA, Glycyrrhetinic acid]
effect on HK-2 cell survival (HK-2 cells): did not affect | Inhibition of BAK by GA (%) (BAK metabolism in HLMs; GA 12.5 µM, BAK 10 µM, HLMs): 23% and 22.72 ± 4.55% and 22.72% | Inhibition of BAK by GA, single samples (BAK metabolism in HLMs; GA 12.5 µM, BAK 10 µM): 17.95% and 23.22% and 27.00% | Inhibition of BAK by GA (%) (BAK metabolism in HLMs; GA 62.5 µM, BAK 10 µM, HLMs): 44% and 43.85 ± 22.41% and 43.85% | Inhibition of BAK by GA (%) (BAK metabolism in HLMs; GA 125.0 µM, BAK 10 µM, HLMs): 92% and 92.00 ± 4.64% | Inhibition of BAK by GA, single samples (BAK metabolism in HLMs; GA 125 µM, BAK 10 µM): 97.25% and 88.45% and 90.28%
